Assay results: PubChem BioAssay AID743102 (Vanderbilt Specialized Chemistry Center, 2013)
Activity calls are given as the source filed them.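 The calls were made as follows: active = human M5 calcium response above 60% of the acetylcholine maximum, marking a potentiator (some results past the limit were not filed as active); inactive = the rest.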

Target: Muscarinic acetylcholine receptor M5 (Homo sapiens) (UniProt P08912)
Assay: M5 positive allosteric modulator potency, confirmation, cell-based, CHO-K1 hM5, Fluo-4 calcium flux, concentration-response (AID 743102)
Conditions: ACh EC20 PAM; for % ACh max: hits give high values; for % ACh max response: at 30 µM (top of the series)

Sequence of Muscarinic acetylcholine receptor M5 (Homo sapiens) (P08912 whole entry, looked up): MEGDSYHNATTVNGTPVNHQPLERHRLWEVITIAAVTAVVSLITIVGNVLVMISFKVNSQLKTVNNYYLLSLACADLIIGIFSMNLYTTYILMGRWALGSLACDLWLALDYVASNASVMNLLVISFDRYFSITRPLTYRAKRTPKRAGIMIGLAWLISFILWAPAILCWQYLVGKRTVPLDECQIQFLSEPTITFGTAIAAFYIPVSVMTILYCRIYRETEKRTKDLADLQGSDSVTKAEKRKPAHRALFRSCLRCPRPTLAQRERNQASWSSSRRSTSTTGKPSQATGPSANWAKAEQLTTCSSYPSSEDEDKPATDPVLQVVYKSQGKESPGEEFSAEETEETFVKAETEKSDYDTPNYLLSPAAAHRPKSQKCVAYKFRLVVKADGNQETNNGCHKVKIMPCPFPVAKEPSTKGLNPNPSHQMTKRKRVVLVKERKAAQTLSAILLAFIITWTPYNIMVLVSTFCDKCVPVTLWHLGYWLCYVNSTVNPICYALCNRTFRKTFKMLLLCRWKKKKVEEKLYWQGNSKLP

Compound | EC50 | further results
O=C(C1CCN(S(=O)(=O)c2ccc3[nH]ncc3c2)CC1)N(CCO)Cc1ccccc1C(F)(F)F | – | % ACh max: inactive
C=CCN(Cc1ccccc1C(F)(F)F)C(=O)C1CCN(S(=O)(=O)c2ccc3[nH]ncc3c2)CC1 | 1.86 µM | –
CCN(Cc1cccc(OC)c1)C(=O)C1CCN(S(=O)(=O)c2ccc3cn[nH]c3c2)CC1 | 2.69 µM | –
CCN(Cc1ccccc1)C(=O)C1CCN(S(=O)(=O)c2ccc3ncccc3c2)CC1 | – | % ACh max: inactive
CCN(Cc1ccccc1C)C(=O)C1CCN(S(=O)(=O)c2ccc3cn[nH]c3c2)CC1 | 0.94 µM | –
CCN(Cc1cccc(C)c1)C(=O)C1CCN(S(=O)(=O)c2ccc3cn[nH]c3c2)CC1 | 1 µM | –
CCN(Cc1ccccc1)C(=O)C1CCN(S(=O)(=O)c2ccc(OC)c(OC)c2)CC1 | – | % ACh max: inactive
CCN(Cc1cccc(F)c1)C(=O)C1CCN(S(=O)(=O)c2ccc3cn[nH]c3c2)CC1 | 1.27 µM | –
CCN(Cc1ccccc1C(F)(F)F)C(=O)C1CN(S(=O)(=O)c2ccc3[nH]ncc3c2)C1 | – | % ACh max response: inactive
CCN(Cc1ccccc1)C(=O)C1CCN(S(=O)(=O)c2cccc(C(F)(F)F)c2)CC1 | – | % ACh max: inactive
O=C1N(Cc2ccccc2)CCC12CCN(S(=O)(=O)c1ccc3c(c1)OCCO3)CC2 | – | % ACh max response: inactive
COc1ccc(S(=O)(=O)N2CCC(C(=O)NCc3ccccc3)CC2)cc1 | – | % ACh max response: inactive
CCN(Cc1ccccc1)C(=O)C1CCN(S(=O)(=O)c2ccc(OC(F)(F)F)cc2)CC1 | 6.1 µM | –
CCN(Cc1ccccc1C(F)(F)F)C(=O)C1(F)CCN(S(=O)(=O)c2ccc3[nH]ncc3c2)CC1 | 0.43 µM | –
CCN(C(=O)C1CCN(S(=O)(=O)c2ccc3[nH]ncc3c2)CC1)[C@H](C)c1ccccc1C(F)(F)F | 4.06 µM | –
CCN(C(=O)C1CCN(S(=O)(=O)c2ccc3[nH]ncc3c2)CC1)[C@H](C)c1ccccc1 | 0.77 µM | –
CCN(Cc1cccc(C#N)c1)C(=O)C1CCN(S(=O)(=O)c2ccc3cn[nH]c3c2)CC1 | – | % ACh max: inactive
CN(C)C(=O)C1(Cc2ccccc2)CCN(S(=O)(=O)c2ccc3occc3c2)CC1 | – | % ACh max response: inactive
CCN(Cc1ccccc1)C(=O)C1CCN(S(=O)(=O)C2CC2)CC1 | – | % ACh max response: inactive
CCN(Cc1cccc(Cl)c1)C(=O)C1CCN(S(=O)(=O)c2ccc3cn[nH]c3c2)CC1 | 1.67 µM | –
CCN(Cc1ccccc1C#N)C(=O)C1CCN(S(=O)(=O)c2ccc3cn[nH]c3c2)CC1 | 7.02 µM | –

Compound | EC50 | further results
CCN(Cc1ccccc1C(F)(F)F)C(=O)C1CCN(S(=O)(=O)c2ccc(-n3cccn3)cc2)CC1 | 1.26 µM | –
CCN(Cc1ccccc1)C(=O)C1CCN(S(C)(=O)=O)CC1 | – | % ACh max response: inactive
CCN(Cc1cccc(C(F)(F)F)c1)C(=O)C1CCN(S(=O)(=O)c2ccc3cn[nH]c3c2)CC1 | – | % ACh max: inactive
CCN(Cc1ccccc1)C(=O)C1CCN(S(=O)(=O)c2ccc(N3CCOCC3)nc2)CC1 | – | % ACh max: inactive
O=C(C1CCN(S(=O)(=O)c2ccc3[nH]ncc3c2)CC1)N(CCF)Cc1ccccc1C(F)(F)F | 1.32 µM | –
CCN(C(=O)C1CCN(S(=O)(=O)c2ccc3cn[nH]c3c2)CC1)C(C)c1ccccn1 (centres undefined) | – | % ACh max: inactive
CCN(Cc1ccccc1)C(=O)[C@H]1CCCN(S(=O)(=O)c2ccc(OC)cc2)C1 | – | % ACh max response: inactive
O=C(C1CCN(S(=O)(=O)c2ccc3cn[nH]c3c2)CC1)N(Cc1ccccc1C(F)(F)F)C1CC1 | – | % ACh max response: inactive
CCN(Cc1ccccc1Cl)C(=O)C1CCN(S(=O)(=O)c2ccc3[nH]ncc3c2)CC1 | 0.34 µM | –
CCCN(Cc1ccccc1C(F)(F)F)C(=O)C1CCN(S(=O)(=O)c2ccc3[nH]ncc3c2)CC1 | 0.16 µM | –
CCN(Cc1ccccc1)C(=O)C1CCN(S(=O)(=O)c2ccc(C)s2)CC1 | 7.48 µM | –
CCN(Cc1ccccc1)C(=O)C1CCN(S(=O)(=O)c2ccc(C(F)(F)F)cc2)CC1 | – | % ACh max: inactive
COc1ccc(S(=O)(=O)N2CCC(C(=O)N(C)Cc3ccccc3)CC2)cc1 | – | % ACh max: inactive
O=C(C1CCN(S(=O)(=O)c2ccc3c(c2)OCCO3)CC1)N1CCc2ccccc2C1 | – | % ACh max response: inactive
CCN(Cc1ccccc1F)C(=O)C1CCN(S(=O)(=O)c2ccc3cn[nH]c3c2)CC1 | 2.08 µM | –
CCN(Cc1ccccc1C(F)(F)F)C(=O)C1CCN(S(=O)(=O)c2ccc3[nH]ncc3c2)CC1 | 0.23 µM | –
CCN(Cc1ccc(OC)cc1)C(=O)C1CCN(S(=O)(=O)c2ccc3cn[nH]c3c2)CC1 | – | % ACh max: inactive
CCN(Cc1ccccc1)C(=O)C1CCN(S(=O)(=O)c2ccc(OC(F)F)cc2)CC1 | 5.05 µM | –
CCN(C(=O)Cc1ccccc1)C1CCN(S(=O)(=O)c2ccc3c(c2)OCCO3)CC1 | – | % ACh max response: inactive
[2H]C([2H])(C)N(C(=O)C1CCN(S(=O)(=O)c2ccc3cn[nH]c3c2)CC1)[C@H](C)c1ccccc1 | 0.53 µM | –
CCN(Cc1ccccn1)C(=O)C1CCN(S(=O)(=O)c2ccc3cn[nH]c3c2)CC1 | – | % ACh max: inactive

Compound | EC50 | further results
O=C(C1CCN(S(=O)(=O)c2ccc3[nH]ncc3c2)CC1)N(Cc1ccccc1C(F)(F)F)C1CC1 | – | % ACh max response: inactive
CC(C)N(Cc1ccccc1C(F)(F)F)C(=O)C1CCN(S(=O)(=O)c2ccc3[nH]ncc3c2)CC1 | – | % ACh max: inactive
O=C(NCc1ccccc1)C1CCN(S(=O)(=O)c2ccc3c(c2)OCCO3)CC1 | – | % ACh max response: inactive
CCN(Cc1ccccc1)C(=O)C1CCN(S(=O)(=O)c2cccc3c2OCCO3)CC1 | – | % ACh max: inactive
C[C@@H](NC(=O)C1CCN(S(=O)(=O)c2ccc3[nH]ncc3c2)CC1)c1ccccc1 | – | % ACh max response: inactive
CCN(C(=O)C1CCN(S(=O)(=O)c2ccc(OC)cc2)CC1)[C@H](C)c1ccccc1 | 1.08 µM | –
CCN(C(=O)C1CCN(S(=O)(=O)c2cc(F)c(F)c(F)c2)CC1)[C@H](C)c1ccccc1 | 2.54 µM | –
COc1ccc(S(=O)(=O)N2CCC3(CCN(Cc4ccccc4)C3=O)CC2)cc1 | – | % ACh max response: inactive
CCN(C(=O)C1CCN(S(=O)(=O)c2ccc3occc3c2)CC1)[C@H](C)c1ccccc1C(F)(F)F | – | % ACh max response: inactive
CCN(Cc1ccccc1Cl)C(=O)C1CCN(S(=O)(=O)c2ccc3cn[nH]c3c2)CC1 | 0.43 µM | –
CCN(C(=O)C1CCN(S(=O)(=O)c2ccc3cn[nH]c3c2)CC1)[C@H](C)c1ccccc1 | 0.83 µM | –
CCN(Cc1ccccc1C(F)(F)F)C(=O)C1CCN(S(=O)(=O)c2ccc3cn[nH]c3c2)CC1 | 0.42 µM | –
CCN(C(=O)C1CCN(S(=O)(=O)c2ccc(-n3cccn3)cc2)CC1)[C@H](C)c1ccccc1 | 0.7 µM | –
CCN(Cc1ccccc1)C(=O)[C@@H]1CCCN(S(=O)(=O)c2ccc(OC)cc2)C1 | – | % ACh max response: inactive
CCN(Cc1ccccc1OC(F)(F)F)C(=O)C1CCN(S(=O)(=O)c2ccc3cn[nH]c3c2)CC1 | 3.43 µM | –
CCN(C(=O)Cc1ccccc1)C1CCN(S(=O)(=O)c2ccc(OC)cc2)CC1 | – | % ACh max response: inactive
CCN(C(=O)C1CCN(S(=O)(=O)c2ccc(OC)cc2)CC1)[C@@H](C)c1ccccc1 | – | % ACh max response: inactive
CCN(Cc1ccccc1C(F)(F)F)C(=O)C1C2CN(S(=O)(=O)c3ccc4[nH]ncc4c3)CC21 (centres undefined) | – | % ACh max response: inactive
CCN(Cc1ccccc1OC)C(=O)C1CCN(S(=O)(=O)c2ccc3cn[nH]c3c2)CC1 | 7.09 µM | –

Continued, in another order:

EC50 | Compound | further results
1.4 µM | CCN(Cc1ccccc1)C(=O)C1CCN(S(=O)(=O)c2ccc3occc3c2)CC1 | –
5.45 µM | CCN(Cc1ccccc1)C(=O)C1CCN(S(=O)(=O)c2ccc(C)cc2)CC1 | –
0.92 µM | CCN(C(=O)C1CCN(S(=O)(=O)c2ccc3occc3c2)CC1)[C@H](C)c1ccccc1 | –
3.23 µM | CCCc1ccc(S(=O)(=O)N2CCC(C(=O)N(CC)Cc3ccccc3)CC2)cc1 | –
12.3 µM | CCN(Cc1ccccc1)C(=O)C1CCN(S(=O)(=O)c2ccc3c(c2)OCCO3)CC1 | –
3.75 µM | CCc1ccc(S(=O)(=O)N2CCC(C(=O)N(CC)Cc3ccccc3)CC2)cc1 | –
1.66 µM | CCN(Cc1ccccc1)C(=O)C1CCN(S(=O)(=O)c2ccc3[nH]ncc3c2)CC1 | –
0.98 µM | CCN(C(=O)C1CCN(S(=O)(=O)c2ccc3c(c2)CCO3)CC1)[C@H](C)c1ccccc1 | –
3.98 µM | CCN(Cc1ccccc1)C(=O)C1CCN(S(=O)(=O)c2cccc(OC(F)F)c2)CC1 | –
0.76 µM | CCN(C(=O)C1CCN(S(=O)(=O)c2ccc3c(c2)CCC3)CC1)[C@H](C)c1ccccc1 | –
5.37 µM | CCN(Cc1ccccc1)C(=O)C1CCN(S(=O)(=O)c2ccccc2)CC1 | –
2.09 µM | CCN(Cc1ccccc1)C(=O)C1CCN(S(=O)(=O)c2ccc3cn[nH]c3c2)CC1 | –
3.25 µM | CCN(Cc1ccccc1)C(=O)C1CCN(S(=O)(=O)c2cccc(OC)c2)CC1 | –
3.57 µM | CCN(Cc1ccccc1)C(=O)C1CCN(S(=O)(=O)c2ccc(OC)cc2)CC1 | –
6.55 µM | CCN(Cc1ccccc1)C(=O)C1CCN(S(=O)(=O)c2ccc(C(C)=O)cc2)CC1 | –
4.81 µM | CCN(Cc1ccccc1)C(=O)C1CCN(S(=O)(=O)c2cccc(Cl)c2)CC1 | –
3.92 µM | CCN(Cc1ccccc1)C(=O)C1CCN(S(=O)(=O)c2ccc(Br)cc2)CC1 | –
5.23 µM | CCN(Cc1ccccc1)C(=O)C1CCN(S(=O)(=O)c2ccc3nsnc3c2)CC1 | –
